This is an account of results in ChEMBL document CHEMBL1158634, “Towards Gram-positive antivirulence drugs: new inhibitors of Streptococcus agalactiae Stk1” (Bioorg Med Chem Lett, 2010).

The structures appear in SMILES notation. A value given as a limit tells only on which side of the number the result lay.

For orientation: IC50 means the point on the concentration scale where inhibition reaches its midpoint. Read a high IC50 as a need for much substance.

A short description of this test: Inhibition of Streptococcus agalactiae Stk1 preincubated for 30 mins.
Take `Cn1cnc2c(NCCCO)nc(N3CCOCC3)nc21`: the IC50 stood at 66 µM.
Compound `Cn1cnc2c(NCCCO)nc(-c3cccc(NC(=O)NCc4ccccc4)c3)nc21` came in with an IC50 of 7.5 µM.
The compound `Cc1cccc(NC(=O)Nc2cccc(-c3nc(NCCCO)c4ncn(C)c4n3)c2)c1` had an IC50 of 0.2 µM.
For the compound `CCCNC(=O)Nc1cccc(-c2nc(NCCCO)c3ncn(C)c3n2)c1`, inhibition was half-maximal at 18 µM (IC50).
Under `Cn1cnc2c(NCCCO)nc(-c3cccc(NC(=O)Nc4ccc5c(c4)OCO5)c3)nc21` stands 0.28 µM; under `Cn1cnc2c(NCCCO)nc(-c3cccc(NC(=O)Nc4cccc(Cl)c4)c3)nc21`, 0.32 µM; under `CN(CCCO)c1nc(-c2cccc(NC(=O)Nc3cccc(Cl)c3)c2)nc2c1ncn2C`, above 300 µM.
`Cn1cnc2c(NCCCO)nc(-c3cccc(NC(=O)Nc4cccc(C#N)c4)c3)nc21` returned an IC50 of 0.49 µM.
Under `Cn1cnc2c(NCCCO)nc(-c3cccc(NC(=O)Nc4ccccc4)c3)nc21` stands 1 µM.
Regarding `Cn1cnc2c(NCCCO)nc(NCc3ccccc3)nc21`, 48 µM corresponded to half-maximal inhibition (IC50).
Under `Cn1cnc2c(NCCCO)nc(-c3cccc(NC(=O)Nc4cccc(S(C)(=O)=O)c4)c3)nc21` stands 0.64 µM.
As to `COc1ccc(NC(=O)Nc2cccc(-c3nc(NCCCO)c4ncn(C)c4n3)c2)cc1`, the IC50 was 0.63 µM.
Under `Cn1cnc2c(NCCCO)nc(-c3cccc(NC(=O)Nc4cccc(N)c4)c3)nc21` stands 0.73 µM; under `COCCCNc1nc(-c2cccc(NC(=O)Nc3cccc(Cl)c3)c2)nc2c1ncn2C`, 0.28 µM; under `Cn1cnc2c(NCCO)nc(-c3cccc(NC(=O)Nc4cccc(Cl)c4)c3)nc21`, 0.32 µM.
Under `Cn1cnc2c(NCCCN)nc(-c3cccc(NC(=O)Nc4cccc(Cl)c4)c3)nc21` stands 0.48 µM; under `Cn1cnc2c(NCCCO)nc(-c3cccc(NC(=O)Nc4cc(Cl)cc(Cl)c4)c3)nc21`, 0.16 µM; under `OCCCNc1nc(Cl)nc2[nH]cnc12`, above 300 µM.
Under `Cn1cnc2c(NCCCO)nc(-c3cccc(NC(=O)Nc4ccsc4)c3)nc21` stands 2 µM.
Regarding `CCCNc1nc(-c2cccc(NC(=O)Nc3cccc(Cl)c3)c2)nc2c1ncn2C`, 0.3 µM corresponded to half-maximal inhibition (IC50).
Turning to `Cn1cnc2c(N)nc(-c3cccc(NC(=O)Nc4cccc(Cl)c4)c3)nc21`, inhibition was half-maximal at 1.3 µM (IC50). Compared with the last compound, the IC50 is about 4.3-fold higher.
With `Cn1cnc2c(NCCCO)nc(-c3cccc(NS(C)(=O)=O)c3)nc21` the figure was 15 µM.
Under `CC(=O)Nc1cccc(NC(=O)Nc2cccc(-c3nc(NCCCO)c4ncn(C)c4n3)c2)c1` stands 0.93 µM; under `Cn1cnc2c(NCCCO)nc(-c3cccc(NC(=O)Nc4cccnc4)c3)nc21`, 0.96 µM.
Turning to `Cn1cnc2c(NCCCO)nc(-c3cccc(NC(=O)Nc4ccccc4Cl)c3)nc21`, the IC50 is 16 µM.
Take `Cn1cnc2c(NCCCO)nc(-c3cccc(NC(=O)Nc4c(Cl)cccc4Cl)c3)nc21`: the IC50 turned out to be 59 µM.
With `CC(=O)Nc1cccc(-c2nc(NCCCO)c3ncn(C)c3n2)c1` the figure was 18 µM.
Under `Cn1cnc2c(NCCCO)nc(-c3cccc(C(=O)O)c3)nc21` stands 39 µM.
Take `Cn1cnc2c(NCCCO)nc(-c3cccc(NC(=O)Nc4ccc(Cl)cc4)c3)nc21`: the 50% inhibitory concentration (IC50) amounted to 1.6 µM.
With `Cn1cnc2c(NCCCO)nc(-c3cccc(NC(N)=O)c3)nc21` the figure was 12 µM; with `Cn1cnc2c(NCCCO)nc(Cl)nc21`, 66 µM.
Compound `CCn1cnc2c(NCCCO)nc(Cl)nc21` gave an IC50 of 175 µM.
The compound `CC(C)n1cnc2c(NCCCO)nc(Cl)nc21` returned an IC50 above 300 µM.
As to `Cn1cnc2c(NCCCO)nc(-c3ccccc3)nc21`, the IC50 was 12 µM.
With `Cn1cnc2c(NCCCO)nc(-c3cccnc3)nc21` the figure was 34 µM; with `Cn1cnc2c(NCCCO)nc(N3CCNCC3)nc21`, 110 µM.
Take `Cn1cnc2c(NCCCO)nc(-c3cccc(Cl)c3)nc21`: half-maximal inhibition (IC50) was put at 3 µM.
Under `Cn1cnc2c(NCCCO)nc(-c3cccc(-c4ccccc4)c3)nc21` stands 4 µM.
Regarding `Cn1cnc2c(NCCCO)nc(-c3cccc(N)c3)nc21`, the half-inhibitory concentration (IC50) was found to be 13 µM.
The compound `Cn1cnc2c(NCCCO)nc(Nc3ccccc3)nc21` came in with an IC50 of 26 µM.
Compound `Cn1cnc2c(NCCCO)nc(-c3cccc([N+](=O)[O-])c3)nc21` had a 50% inhibitory concentration (IC50) of 3 µM. Compared with the last compound, the IC50 is about 8.7-fold lower.
Under `Cn1cnc2c(NCCCO)nc(-c3cccc(C(F)(F)F)c3)nc21` stands 4 µM; under `Cn1cnc2c(NCCCO)nc(-c3cccc(NS(=O)(=O)Cc4ccccc4)c3)nc21`, 22 µM.
The compound `Cn1cnc2c(NCCCO)nc(-c3cccc(C(=O)NCCc4cccnc4)c3)nc21` returned an IC50 of 38 µM.
Under `Cn1cnc2c(NCCCO)nc(-c3cccc(C(=O)N4CCC(c5ccccc5)CC4)c3)nc21` stands 174 µM; under `Cn1cnc2c(NCCCO)nc(-c3cccc(C(=O)NCCCc4ccccc4)c3)nc21`, above 300 µM.
